# Assay results reported in US20220002288A1, “MONOBACTAM COMPOUNDS AND USE THEREFOR” (priority 2018, published 2022).
# Where a name gives a salt, the structure may show the parent alone. Read-outs that look alike come from different tables or passages of the source.
# Columns and labels:
# [1] = system: Acinetobacter baumannii, Pseudomonas aeruginosa, and Escherichia coli; assay: In vitro antibacterial activity, summary statements over all strains of Experimental Example 1; format: cell-based; conditions: method of Experimental Example 1
# Method: (§1) Compounds: The compounds prepared in the above examples and comparative examples. All test compounds were dissolved and diluted with DMSO, and the final concentrations were prepared as 64, 32, 16, 8, 4, 2, 1, 0.5, 0.25, 0.125, 0.0625 μg/mL in the experiment.
# (§2) Bacterial strains: 6 strains of Acinetobacter baumannii (codenames: HDBAB-YK4, HDBAB-YK7, HDBAB-YK12, HDBAB-YK16, HDBAB_OXA_7, ATCC 19606), 2 strains of Pseudomonas aeruginosa (codenames: HDBPA-YK9, HDBPA)-YK15), 1 strain of Escherichia coli (codename: CLB30048), all provided by HD Biosciences (Shanghai) Co., Ltd.
# The minimum inhibitory concentration (MIC) of each compound was recorded according to the guidelines of the Clinical and Laboratory Standards Institute.
# Escherichia coli = assay: In vitro antibacterial activity, minimum inhibitory concentration (MIC); format: cell-based
# Method: as §1, §2
# (§3) Medium: Trypticase soy agar (TSA) (BD BBL 211043), and Cation-adjusted Mueller Hinton broth (CAMHB) (BD BBL212322).
# (§4) The bacteria used for the minimum inhibitory concentration (MIC) test were stored frozen at −80° C., and needed 2 days to recover before use. A small amount of frozen bacteria was scraped with a sterile inoculation loop for streak inoculation on a TSA solid medium petri dish. The dish was placed in an ordinary incubator at 35±2° C. for 20-24 hours. 5-10 Colonies with similar morphologies were picked from the above-mentioned petri dish with a sterile inoculating loop for streak inoculation again on a TSA solid medium petri dish. The dish was then placed in an ordinary incubator at 35±2° C. for 20-24 hours.
# (§5) 1.02×CAMHB liquid medium was taken out from a 4° C. refrigerator and placed at room temperature for preheating. 5-10 Individual bacterial colonies were picked from the solid petri dish of the above Section 2.1 and re-suspended in 500 μL of 0.9% NaCl, and then the OD600 was adjusted to 0.1-0.15 with a spectrophotometer. Then the bacteria were diluted 400 times with 1.02×CAMHB (two-step dilution method: firstly diluting 10 times, then diluting 40 times).
# (§6) The number of inoculated bacteria can be obtained by counting the colonies on the petri dish (see Section 2.4).
# (§7) One compound was arranged in each row of a 96-well test plate: the highest test concentration for each compound was 64 μg/mL, which was diluted by a factor of two.
# (§8) Growth control (GC): 1.02×CAMHB and dimethyl sulfoxide (DMSO) containing bacterial inoculum, no compound.
# (§9) Sterile control (SC): Containing 1.02×CAMHB and DMSO, no compound.
# (§10) All test compounds were dissolved and diluted with DMSO. 50 μL of 3.2 mg/mL of each test compound was transferred to the initial well (A1-H1) of the dilution plate, and then 25 μL of DMSO was transferred to other wells. The test compounds were sequentially diluted by a factor of 2 from column 1 to column 11 (i.e. drawing 25 μL of test compound from column 1 to column 2 and mixing well, and then drawing 25 μL of test compound from column 2 to column 3 and mixing well, and then drawing 25 μL of test compound from column 3 to column 4 and mixing well, and so on, until diluting to column 11).
# (§11) 2 μL of the compound was transferred from the compound plate to the corresponding well of the test plate. Meanwhile, 2 μL of 100% DMSO was transferred to the compound-free wells (the GC and SC wells).
# (§12) 98 μL of the corresponding bacterial inoculum was added to the test plate (except for the SC well).
# (§13) 98 μL of 1.02×CAMHB medium was added to the SC well of the test plate.
# (§14) After the system was added, the test plate was covered with a sterile lid, centrifuged at 800 rpm for 30 seconds, then shaken on a plate shaker at 400 rpm for 1 minute for mixing well, and then placed in an incubator at 35±2° C. for 20 hours.
# (§15) The inoculated bacteria were gradient diluted by 10 folds with the liquid medium, from 10^−1 to 10^−3. 100 μL of the above bacterial dilution was spread evenly on a TSA petri dish, 2 replicates for each dilution. After the medium was absorbed by TSA for 10 minutes, the petri dishes were reversed and incubated in an incubator at 35±2° C. for 24 hours.
# (§16) A compound management system was turned on to check whether the barcode and compound arrangement of each test plate were correct. […]
# Acinetobacter baumannii = assay: as above; format: cell-based
# Method: as §1, §2, §3, §4, §5, §6, §7, §8, §9, §10, §11, §12, §13, §14, §15, §16
# Pseudomonas aeruginosa = assay: as above; format: cell-based
# Method: as §1, §2, §3, §4, §5, §6, §7, §8, §9, §10, §11, §12, §13, §14, §15, §16
# [2] = Pharmacokinetics of the compounds in mice; format: in vivo, BALB/c mice; conditions: mouse, plasma, male BALB/c mice, single intravenous dose 2 mg/kg, plasma; for Vd: male, BALB/c, iv, 2 mg/kg
# Excerpt: Animals: male BALB/c mice, SPF grade, purchased from Changzhou Cavens Experimental Animal Co., Ltd.; 16-24 g, license number: SCXK (Su)2016-0010; 2 to 3 days of adaptation period were given before the experiment.
# Instruments: API 4500 High Performance Liquid Chromatograph Coupled Triple Quadrupole Mass Spectrometer, and Analyst QS A01.01 Chromatography Workstation were both purchased from AB SCIEX of the United States; Milli-Q ultrapure water device was purchased from Millipore; CF16R XII desktop high-speed refrigerated centrifuge was purchased From Hitachi Company; Qilinbeier Vortex-5 oscillator was purchased from IKA Company of German; electric heating constant-temperature water bath was purchased from Changzhou Guohua Electric Appliance Co., Ltd.; electric pipette was purchased from Thermo Company of American; and microanalysis balance was purchased from Shanghai Mettler Co., Ltd.
# 2 mg of the test compound was weighed, added to physiological saline, vortexed for 2 min, and ultrasonicated for 3 min, to prepare a test solution with a concentration of 0.2 mg/mL for intravenous administration.
# A single dose of 2 mg/kg of the test compound was administered to BALB/c mice via the tail vein, the dose volume being 0.1 mL/10 g. At 5 min, 15 min, 30 min, 1 h, 2 h, 4 h after administration, blood samples were collected from the orbital venous plexus into heparinized EP tubes (0.6 mL), which were temporarily placed on crushed ice.
# The samples were centrifuged at 8000 rpm for 5 min. 15 μL of upper plasma were transferred to a 96-well plate. 150 μL of methanol:acetonitrile (v/v=1:1) (containing 20 ng/mL tolbutamide) was added to 15 μL of plasma, shaken for 3 min, and centrifuged at 4500 rpm for 5 min. 100 μL of supernatant was taken to a 2 mL deep well plate. 100 μL of diluent (pure water) was added. The samples were shaken for 3 min, and centrifuged at 4500 rpm for 5 min. 180 μL of the supernatant was transferred to the sample plate. The content of the compound in the supernatant sample was analyzed by LC-MS/MS, and various pharmacokinetic parameters were calculated with WinNonlin software.
Structure (SMILES),in vitro antibacterial activity (in words) [1],"MIC (Escherichia coli; strain CLB30048, read-out: MIC) [µg/mL]",MIC (Acinetobacter baumannii; strain HDBAB-YK4) [µg/mL],MIC (Acinetobacter baumannii; strain HDBAB-YK7) [µg/mL],MIC (Acinetobacter baumannii; strain HDBAB-YK12) [µg/mL],MIC (Acinetobacter baumannii; strain HDBAB-YK16) [µg/mL],MIC (Acinetobacter baumannii; strain HDBAB_OXA_7) [µg/mL],MIC (Pseudomonas aeruginosa; strain HDBPA-YK9) [µg/mL],MIC (Pseudomonas aeruginosa; strain HDBPA-YK15) [µg/mL],MIC (Escherichia coli) [µg/mL],"MIC (Acinetobacter baumannii; ATCC19606, strain ATCC 19606) [µg/mL]",Vd ([2]; read-out: VSS) [L/kg],Vd ([2]; read-out: Vd) [L/kg],AUC(0-inf) [2] [ng·h/mL],AUC(0-t) [2] [ng·h/mL],C0 [2] [ng/mL],clearance [2] [mL/min/kg],half-life [2] [min]
"CC1[C@@H](NC(=O)/C(=N\OC2(C(=O)O)CC2)c2csc(N)n2)[C@@H](CN2CCOC2=O)N1S(=O)(=O)O (some centres unmarked) [Compound B, reference compound]",significantly weaker,> 64,> 64,> 64,> 64,> 64,> 64,> 64,> 64,,,,,,,,,
"CC1(C)[C@H](NC(=O)/C(=N\O[C@@H](COc2ccc(NC(=O)c3cn(CCCN)[n+](CC4CNC4)c3)cc2)C(=O)O)c2csc(N)n2)C(=O)N1OS(=O)(=O)[O-] [Example 2, (S)-3-((Z)-2-(((S)-2-(4-(1-(3-aminopropyl)-2-(azetidin-3-ylmethyl)-1H-pyrazol-2-ium-4-carboxamido)phenoxy)-1-carboxyethoxy)imino)-2-(2-aminothiazol-4-yl)acetylamido)-2,2-dimethyl-4-oxoazetidin-1-yl Sulfate]",excellent antibacterial activity,,2,0.625,2,8,4,4,> 64,1,2,,,,,,,
"C[n+]1cc(-c2ccc(OC[C@H](O/N=C(\C(=O)N[C@@H]3C(=O)N(OS(=O)(=O)[O-])C3(C)C)c3csc(N)n3)C(=O)O)cc2)ccc1NC(=O)[C@@H](N)CCCCN [Example 4, (S)-3-((Z)-2-(2-aminothiazol-4-yl)-2-(((S)-1-carboxy-2-(4-(6-((S)-2,6-diaminohexanamido)-1-methylpyridin-1-ium-3-yl)phenoxy)ethoxy)imino)acetylamino)-2,2-dimethyl-4-oxoazetidin-1-yl Sulfate]",,8,2,2,4,32,16,16,> 64,,2,0.73,0.88,813,751,3010,42.8,13.8
"CC1(C)[C@H](NC(=O)/C(=N\O[C@@H](COc2ccc(-c3ccc(NC(=O)[C@@H](N)CCCCN)nc3)cc2)C(=O)O)c2csc(N)n2)C(=O)N1OS(=O)(=O)O [Example 5, (S)-2-((((Z)-1-(2-aminothiazol-4-yl)-2-(((S)-2,2-dimethyl-4-oxo-1-(sulfonyloxy)azetidin-3-yl)amino)-2-oxoethylene)amino)oxy)-3-(4-(6-((S)-2,6-diaminohexanamido)pyridin-3-yl)phenoxy)propionic Acid]",,8,32,> 64,4,64,16,32,> 64,,8,,,,,,,
C[n+]1cc(-c2ccc(OC[C@H](O/N=C(\C(=O)N[C@@H]3C(=O)N(OS(=O)(=O)[O-])C3(C)C)c3csc(N)n3)C(=O)O)cc2)ccc1NC(=O)[C@@H](N)CO [Example 6],,32,32,64,4,> 64,32,64,> 64,,64,,,,,,,
CC1(C)[C@H](NC(=O)/C(=N\O[C@@H](COc2ccc(-c3ccc(NC(=O)[C@@H](N)CO)nc3)cc2)C(=O)O)c2csc(N)n2)C(=O)N1OS(=O)(=O)O [Example 7],,64,> 64,> 64,16,> 64,> 64,32,> 64,,64,,,,,,,
C[n+]1cc(-c2ccc(OC[C@H](O/N=C(\C(=O)N[C@@H]3C(=O)N(OS(=O)(=O)[O-])C3(C)C)c3csc(N)n3)C(=O)O)cc2)ccc1NC(=O)[C@H](N)CCCCN [Example 8],,8,4,1,2,16,8,16,> 64,,2,,,,,,,
"CC1(C)[C@H](NC(=O)/C(=N\O[C@@H](CCCOc2ccc(-c3cn(CCCN)[n+](CC4CNC4)c3)cc2)C(=O)O)c2csc(N)n2)C(=O)N1OS(=O)(=O)[O-] [Example 10, (S)-3-((Z)-2-(((S)-4-(4-(1-(3-aminopropyl)-2-(azetidin-3-ylmethyl)-1H-pyrazol-2-ium-4-yl)phenoxy)-1-carboxybutoxy)imino)-2-(2-aminothiazol-4-yl)acetylamino)-2,2-dimethyl-4-oxoazetidin-1-yl Sulfate]",,1,8,0.5,8,16,8,8,32,,4,,,,,,,
"CC1(C)[C@H](NC(=O)/C(=N\O[C@@H](COc2ccc(-c3ccc4[nH]c(CN)nc4c3)cc2)C(=O)O)c2csc(N)n2)C(=O)N1OS(=O)(=O)O [Example 11, (S)-3-(4-(2-(aminomethyl)-1H-benzo[d]imidazol-5-yl)phenoxy)-2-((((Z)-1-(2-aminothiazol-4-yl)-2-(((S)-2,2-dimethyl-4-oxo-1-(sulfonyloxy)azetidin-3-yl)amino)-2-oxoethylene)amino)oxy)propionic Acid]",,32,> 64,> 64,16,> 64,> 64,32,> 64,,> 64,,,,,,,
